Tests used:
Type in all cases: functional
[1] = tested on: MCF7; assay: Cytotoxicity against Homo sapiens (human) MCF7 cells assessed as growth inhibition at 10 uM after 48 hr by coulter counter analysis; settings: MCF7, 48 h, read-out: GI
[2] = tested on: IGROV-1; assay: Cytotoxicity against Homo sapiens (human) IGROV1 cells assessed as growth inhibition at 10 uM after 48 hr by coulter counter analysis; settings: IGROV-1, 48 h, read-out: GI
[3] = tested on: OVCAR-3; assay: Cytotoxicity against Homo sapiens (human) OVCAR3 cells assessed as growth inhibition at 10 uM after 48 hr by coulter counter analysis; settings: OVCAR-3, 48 h, read-out: GI
[4] = tested on: SK-MEL-28; assay: Cytotoxicity against Homo sapiens (human) SK-MEL-28 cells assessed as growth inhibition at 10 uM after 48 hr by coulter counter analysis; settings: SK-MEL-28, 48 h, read-out: GI
[5] = tested on: UACC-257; assay: Cytotoxicity against Homo sapiens (human) UACC257 cells assessed as growth inhibition at 10 uM after 48 hr by coulter counter analysis; settings: UACC-257, 48 h, read-out: GI
[6] = tested on: NCI-H460; assay: Cytotoxicity against Homo sapiens (human) NCI-H460 cells assessed as growth inhibition at 10 uM after 48 hr by coulter counter analysis; settings: NCI-H460, 48 h, read-out: GI
[7] = tested on: Hs-578T; assay: Cytotoxicity against Homo sapiens (human) Hs578T cells assessed as growth inhibition at 10 uM after 48 hr by coulter counter analysis; settings: read-out: GI
[8] = tested on: NCI-H23; assay: Cytotoxicity against Homo sapiens (human) NCI-H23 cells assessed as growth inhibition at 10 uM after 48 hr by coulter counter analysis; settings: NCI-H23, 48 h, read-out: GI
[9] = tested on: HT-29; assay: Cytotoxicity against Homo sapiens (human) HT-29 cells assessed as growth inhibition at 10 uM after 48 hr by coulter counter analysis; settings: HT-29, 48 h, read-out: GI
[10] = tested on: NCI-H522; assay: Cytotoxicity against Homo sapiens (human) NCI-H522 cells assessed as growth inhibition at 10 uM after 48 hr by coulter counter analysis; settings: NCI-H522, 48 h, read-out: GI
[11] = tested on: HCT-15; assay: Cytotoxicity against Homo sapiens (human) HCT15 cells assessed as growth inhibition at 10 uM after 48 hr by coulter counter analysis; settings: HCT-15, 48 h, read-out: GI
[12] = tested on: OVCAR-4; assay: Cytotoxicity against Homo sapiens (human) OVCAR4 cells assessed as growth inhibition at 10 uM after 48 hr by coulter counter analysis; settings: OVCAR-4, 48 h, read-out: GI
[13] = tested on: NCI-H226; assay: Cytotoxicity against Homo sapiens (human) NCI-H226 cells assessed as growth inhibition at 10 uM after 48 hr by coulter counter analysis; settings: NCI-H226, 48 h, read-out: GI
[14] = tested on: SK-OV-3; assay: Cytotoxicity against Homo sapiens (human) SKOV3 cells assessed as growth inhibition at 10 uM after 48 hr by coulter counter analysis; settings: SK-OV-3, 48 h, read-out: GI
[15] = tested on: 786-0; assay: Cytotoxicity against Homo sapiens (human) 786-0 cells assessed as growth inhibition at 10 uM after 48 hr by coulter counter analysis; settings: 786-0, 48 h, read-out: GI
[16] = tested on: Malme-3M; assay: Cytotoxicity against Homo sapiens (human) MALME-3M cells assessed as growth inhibition at 10 uM after 48 hr by coulter counter analysis; settings: read-out: GI
[17] = tested on: T47D; assay: Cytotoxicity against Homo sapiens (human) T47D cells assessed as growth inhibition at 10 uM after 48 hr by coulter counter analysis; settings: read-out: GI
[18] = tested on: HCT-116; assay: Cytotoxicity against Homo sapiens (human) HCT116 cells assessed as growth inhibition at 10 uM after 48 hr by coulter counter analysis; settings: HCT-116, 48 h, read-out: GI
[19] = tested on: CCRF-CEM; assay: Cytotoxicity against Homo sapiens (human) CCRF-CEM cells assessed as growth inhibition at 10 uM after 48 hr by coulter counter analysis; settings: read-out: GI

Row | SMILES | inhibition of growth at 10 µM [1] | inhibition of growth at 10 µM [2] | inhibition of growth at 10 µM [3] | inhibition of growth at 10 µM [4] | inhibition of growth at 10 µM [5] | inhibition of growth at 10 µM [6] | inhibition of growth at 10 µM [7] | inhibition of growth at 10 µM [8] | inhibition of growth at 10 µM [9] | inhibition of growth at 10 µM [10] | inhibition of growth at 10 µM [11] | inhibition of growth at 10 µM [12] | inhibition of growth at 10 µM [13] | inhibition of growth at 10 µM [14] | inhibition of growth at 10 µM [15] | inhibition of growth at 10 µM [16] | inhibition of growth at 10 µM [17] | inhibition of growth at 10 µM [18] | inhibition of growth at 10 µM [19]
1 | O=C(CSc1nc2ccccc2c(=O)n1CCc1ccccc1)c1ccc(F)cc1 | < 10% | 21% | < 10% | < 10% | < 10% | < 10% | 25% | 20% | < 10% | < 10% | < 10% | < 10% | < 10% | < 10% | 32% | < 10% | 18% | 18% | 
2 | O=c1c2ccccc2nc(SCc2nnc(S)n2Cc2ccccc2)n1CCc1ccccc1 | 27% | < 10% | < 10% | < 10% | < 10% |  | < 10% | < 10% | < 10% | 46% | < 10% | < 10% | 22% | < 10% | < 10% | < 10% | 38% | 24% | 13%
3 | O=C(CSc1nc2ccccc2c(=O)n1CCc1ccccc1)c1ccccc1 | < 10% | < 10% | < 10% | < 10% | < 10% | < 10% | < 10% | < 10% | < 10% | 11% | < 10% | < 10% | < 10% | < 10% | < 10% | 14% | < 10% | 19% | 
4 | CSc1nc2ccccc2c(=O)n1CCc1ccccc1 | 34% | 24% | < 10% | < 10% | < 10% | < 10% | 14% | 16% | < 10% | < 10% | 39% | 21% | 11% | < 10% |  | < 10% | 59% | 37% | 
5 | O=c1c2ccccc2nc(SCc2nnc(S)n2-c2ccccc2)n1CCc1ccccc1 | 28% | 16% | < 10% | < 10% |  | < 10% | < 10% | < 10% | < 10% | < 10% | 25% | < 10% | < 10% | < 10% | < 10% | < 10% | 38% | < 10% | 28%

Source: ChEMBL document CHEMBL3044826, “Design, synthesis and biological evaluation of some novel substituted 2-mercapto-3-phenethylquinazolines as antitumor agents” (2013)
